The values below come from US20060247321A1, “Abnormal Cannabidiols as agents useful in combination therapy for lowering intraocular pressure” (priority 2005, published 2006).

Holding throughout (format): in vivo
For test [1], the system named is Ocular normotensive Beagle dogs. In words: Intraocular pressure by applanation pneumatonometry in conscious dogs. As to conditions: 0.1%, topical to one eye, once daily for five days, vehicle in fellow eye. The method, then: (§1) Intraocular pressure was measured by applanation pneumatonometry in conscious animals. The test compound was administered topically to one eye while vehicle was given to the fellow eye in a masked fashion. Ocular normotensive Beagle dogs (males, females) were dosed once daily for five days. Laser-induced unilaterally ocular hypertensive Cynomolgus monkeys (females) were dosed once daily for 4 days. Student's paired t-test was used for statistical comparisons. Differences were considered statistically significant if the P-value is less than 0.05.

Test [2] concerns Laser-induced unilaterally ocular hypertensive Cynomolgus monkeys. The test is described as follows: Intraocular pressure by applanation pneumatonometry in conscious monkeys. The following applies: 0.1%, topical to one eye, once daily for 4 days, vehicle in fellow eye. As for the experimental part:
as §1

The subject of test [3] is ocular normotensive nonhuman primates (cynomolgus monkeys). The test is described as follows: Outflow facility of monkeys treated with abnormal cannabidiol. The following applies: 0.1%. An excerpt:
(§2) Consequently, the intraocular pressure lowering effects of abnormal cannabidiol is anticipated to predominantly involve reduction of aqueous humor formation in humans and nonhuman primates.

The test system is the same in test [4]. In words: Uveoscleral outflow of monkeys treated with abnormal cannabidiol. The following applies: 0.1%.
From the text: as §2

[5] abbreviates: topically once-daily for 5 days.

In the case of Abnormal Cannabidiol, the “effect on Dog Intraocular Pressure versus time” value in test [1] is recorded as “lowers IOP”. Moreover, the “effect on Monkey Intraocular Pressure versus time” value in test [2] is “lowers IOP”. Also, the “Outflow Facility, Ratio, Treated:Control, Treatment” value in test [3] (topical once-daily for 5 days vs vehicle, mean ± sem, n = 6 animals) is 0.93 ± 0.09. For the same substance, the “Outflow Facility, Treated Eye, Treatment” value in test [3] (topical once-daily for 5 days, mean ± sem, n = 6 animals) is listed as 0.57 ± 0.08 ul/min/mm Hg. Besides, the “effect on total outflow facility compared to baseline and/or contralateral vehicle-treated control eyes” value in test [3] (setting [5]) was “no significant effects”. Further, in test [4] (topical once-daily for 5 days vs vehicle, mean ± sem, n = 5 animals), the “Uveosclearal Outflow, Ratio, Treated:Control” value is reported as 0.78 ± 0.05. For the same substance, in test [4] (topical once-daily for 5 days, mean ± sem, n = 5 animals), the “Uveosclearal Outflow, Treated Eye” value came out at 0.58 ± 0.17 µL/min. Further, in test [4] (setting [5]), the “effect on uveoscleral outflow compared to baseline and/or contralateral vehicle-treated control eyes” value is recorded as “no significant effects”.
